# Reference: publication PMC11272598, “RG7774 (Vicasinabin), an orally bioavailable cannabinoid receptor 2 (CB2R) agonist, decreases retinal vascular permeability, leukocyte adhesion, and ocular inflammation in animal models” (Frontiers in Pharmacology, 2024)
# Tests used:
# Test in all cases: CEREP radioligand binding
# D2S (h) = D2S (h) (Homo sapiens, UniProt P14416); details: radioligand [^3H]-methyl-spiperone
# Source text: (§1) Supplement Table1.docx, table 3: Supplementary Table S3. RG7774 binding to non-CB1R/CB2R receptors, ion channels, transporters, and enzymes (CEREP, Celle l’Evescault, France; http://www.cerep.fr). | column: % inhibition of control SB (n = 2)
# BB (non-selective) = details: radioligand [^125I]-[Tyr^4]bombesin
# Source text: as §1
# A2A (h) = A2A (h) (Homo sapiens, UniProt P29274); details: radioligand [^3H]-CGS 21680
# A2A (h), sequence (P29274 whole entry): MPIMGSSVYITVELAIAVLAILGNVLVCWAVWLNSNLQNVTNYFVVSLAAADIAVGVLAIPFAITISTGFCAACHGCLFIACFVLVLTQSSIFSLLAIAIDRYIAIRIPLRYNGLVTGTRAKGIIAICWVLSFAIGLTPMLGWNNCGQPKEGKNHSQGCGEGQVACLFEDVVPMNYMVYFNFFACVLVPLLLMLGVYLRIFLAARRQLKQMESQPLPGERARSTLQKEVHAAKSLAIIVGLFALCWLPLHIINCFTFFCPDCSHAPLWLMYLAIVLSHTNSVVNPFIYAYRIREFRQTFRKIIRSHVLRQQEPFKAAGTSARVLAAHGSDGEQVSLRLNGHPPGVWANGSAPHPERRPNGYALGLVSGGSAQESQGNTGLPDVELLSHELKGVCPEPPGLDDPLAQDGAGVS
# Source text: as §1
# D3 (h) = D3 (h) (Homo sapiens, UniProt P35462); details: radioligand [^3H]-methyl-spiperone
# D3 (h), sequence (P35462 whole entry): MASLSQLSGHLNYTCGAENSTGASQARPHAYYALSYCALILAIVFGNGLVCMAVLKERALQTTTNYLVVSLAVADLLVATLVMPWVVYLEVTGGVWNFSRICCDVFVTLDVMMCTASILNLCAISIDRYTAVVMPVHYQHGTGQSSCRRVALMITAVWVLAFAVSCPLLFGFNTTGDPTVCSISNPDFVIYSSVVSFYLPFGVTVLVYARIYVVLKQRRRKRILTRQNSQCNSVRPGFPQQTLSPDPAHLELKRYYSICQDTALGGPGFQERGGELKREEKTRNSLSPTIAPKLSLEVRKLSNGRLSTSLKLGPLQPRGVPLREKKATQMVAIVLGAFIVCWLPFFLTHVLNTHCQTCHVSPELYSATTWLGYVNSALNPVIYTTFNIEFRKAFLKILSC
# Source text: as §1
# Alpha 2 (non-selective) = details: radioligand [^3H]-RX 821002
# Source text: as §1
# P2X = details: radioligand [^3H]-α,β-MeATP
# Source text: as §1
# [1] = molecular target: Norepinephrine transporter (h) (Homo sapiens, UniProt P23975); details: radioligand [^3H]-nisoxetine
# Norepinephrine transporter (h), sequence (P23975 whole entry): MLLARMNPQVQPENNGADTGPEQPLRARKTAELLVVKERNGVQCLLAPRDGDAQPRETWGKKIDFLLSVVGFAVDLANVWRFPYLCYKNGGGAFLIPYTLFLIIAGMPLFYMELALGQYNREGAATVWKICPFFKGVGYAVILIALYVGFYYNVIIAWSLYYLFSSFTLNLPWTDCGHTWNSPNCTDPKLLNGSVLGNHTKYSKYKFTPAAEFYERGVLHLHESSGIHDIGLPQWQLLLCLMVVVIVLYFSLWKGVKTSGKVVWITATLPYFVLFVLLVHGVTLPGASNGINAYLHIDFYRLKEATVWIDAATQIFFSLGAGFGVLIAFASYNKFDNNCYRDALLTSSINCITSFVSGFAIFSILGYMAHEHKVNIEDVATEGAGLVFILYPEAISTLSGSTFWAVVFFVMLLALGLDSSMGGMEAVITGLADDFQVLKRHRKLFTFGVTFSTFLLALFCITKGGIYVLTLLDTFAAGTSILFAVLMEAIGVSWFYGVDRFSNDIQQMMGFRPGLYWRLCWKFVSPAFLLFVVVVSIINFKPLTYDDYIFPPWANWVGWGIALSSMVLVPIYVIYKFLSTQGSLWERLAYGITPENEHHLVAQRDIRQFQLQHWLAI
# Source text: as §1
# H1 (h) = H1 (h) (Homo sapiens, UniProt P35367); details: radioligand [^3H]-pyrilamine
# Source text: as §1
# Beta 1 (h) = Beta 1 (h) (Homo sapiens, UniProt P08588); details: radioligand [^3H](-)CGP 12177
# Beta 1 (h), sequence (P08588 whole entry): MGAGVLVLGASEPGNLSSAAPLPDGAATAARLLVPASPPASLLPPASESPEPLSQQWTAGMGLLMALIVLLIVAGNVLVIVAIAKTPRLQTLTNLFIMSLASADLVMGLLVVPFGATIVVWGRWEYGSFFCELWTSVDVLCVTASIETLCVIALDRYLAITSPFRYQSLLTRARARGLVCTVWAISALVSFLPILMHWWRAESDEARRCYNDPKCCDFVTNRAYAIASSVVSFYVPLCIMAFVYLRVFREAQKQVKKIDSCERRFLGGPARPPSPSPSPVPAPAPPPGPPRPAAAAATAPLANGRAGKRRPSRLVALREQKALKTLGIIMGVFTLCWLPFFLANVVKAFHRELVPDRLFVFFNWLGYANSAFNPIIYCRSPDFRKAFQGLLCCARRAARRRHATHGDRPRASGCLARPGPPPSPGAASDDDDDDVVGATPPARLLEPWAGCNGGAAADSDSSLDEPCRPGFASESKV
# Source text: as §1
# 5-HT2C (h) = 5-HT2C (h) (Homo sapiens, UniProt P28335); details: radioligand [^3H]-mesulergine
# Source text: as §1
# ETA (h) = ETA (h) (Homo sapiens, UniProt P25101); details: radioligand [^125I]-endothelin-1
# ETA (h), sequence (P25101 21-427): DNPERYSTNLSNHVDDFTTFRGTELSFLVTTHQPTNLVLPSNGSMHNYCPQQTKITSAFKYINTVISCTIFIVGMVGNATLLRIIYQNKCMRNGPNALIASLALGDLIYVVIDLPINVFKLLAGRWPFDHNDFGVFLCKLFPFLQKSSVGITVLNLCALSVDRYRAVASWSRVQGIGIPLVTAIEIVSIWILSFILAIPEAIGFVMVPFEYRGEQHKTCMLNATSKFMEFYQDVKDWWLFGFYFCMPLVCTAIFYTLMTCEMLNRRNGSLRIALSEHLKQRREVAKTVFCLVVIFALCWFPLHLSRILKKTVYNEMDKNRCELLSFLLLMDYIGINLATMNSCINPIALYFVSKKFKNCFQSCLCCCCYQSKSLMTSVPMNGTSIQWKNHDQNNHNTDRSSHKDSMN
# Source text: as §1
# PDGF = details: radioligand [^125I]-PDGF BB
# Source text: as §1
# 5-HT6 (h) = 5-HT6 (h) (Homo sapiens, UniProt P50406); details: radioligand [^3H]-LSD
# 5-HT6 (h), sequence (P50406 whole entry): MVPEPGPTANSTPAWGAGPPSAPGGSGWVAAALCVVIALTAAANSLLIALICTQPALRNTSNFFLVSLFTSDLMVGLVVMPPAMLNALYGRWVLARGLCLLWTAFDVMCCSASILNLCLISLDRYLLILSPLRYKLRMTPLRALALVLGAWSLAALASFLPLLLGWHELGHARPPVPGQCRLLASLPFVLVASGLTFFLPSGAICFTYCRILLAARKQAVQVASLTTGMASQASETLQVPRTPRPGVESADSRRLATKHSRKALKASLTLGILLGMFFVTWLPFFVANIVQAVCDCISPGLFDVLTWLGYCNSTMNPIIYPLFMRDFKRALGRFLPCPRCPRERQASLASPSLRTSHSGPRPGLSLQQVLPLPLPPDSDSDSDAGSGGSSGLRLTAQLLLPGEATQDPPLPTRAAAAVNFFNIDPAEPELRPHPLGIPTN
# Source text: as §1
# Y1 (h) = Y1 (h) (Homo sapiens, UniProt P25929); details: radioligand [^125I]-peptide YY
# Source text: as §1
# D4.4 (h) = D4.4 (h) (Homo sapiens, UniProt P21917); details: radioligand [^3H]-methyl-spiperone
# D4.4 (h), sequence (P21917 whole entry): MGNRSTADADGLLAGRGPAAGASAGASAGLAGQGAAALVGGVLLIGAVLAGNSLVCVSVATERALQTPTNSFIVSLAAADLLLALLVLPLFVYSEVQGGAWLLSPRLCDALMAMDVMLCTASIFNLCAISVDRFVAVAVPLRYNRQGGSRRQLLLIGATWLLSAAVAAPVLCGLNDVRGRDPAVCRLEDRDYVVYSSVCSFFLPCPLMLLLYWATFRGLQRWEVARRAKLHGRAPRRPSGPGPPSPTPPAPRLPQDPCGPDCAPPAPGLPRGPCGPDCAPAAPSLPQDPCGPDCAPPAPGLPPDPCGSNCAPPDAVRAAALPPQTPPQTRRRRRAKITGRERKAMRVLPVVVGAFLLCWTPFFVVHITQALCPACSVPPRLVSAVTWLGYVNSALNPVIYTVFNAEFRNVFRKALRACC
# Source text: as §1
# CCR1 = CCR1 (Homo sapiens, UniProt P32246); details: radioligand [^125I]-MIP-1α
# Source text: as §1
# A3 (h) = A3 (h) (Homo sapiens, UniProt P0DMS8); details: radioligand [^125I]-AB-MECA
# Source text: as §1
# [2] = test system: Ca2+ channel (L, verapamil site) (phenylalkylamine); details: radioligand [^3H]-D888
# Source text: as §1
# ETB (h) = ETB (h) (Homo sapiens, UniProt P24530); details: radioligand [^125I]-endothelin-1
# Source text: as §1
# κ(KOP) = κ(KOP) (Rattus norvegicus, UniProt P34975); details: radioligand [^3H]-U 69593
# Source text: as §1
# IP (PGI2) (h) = IP (PGI2) (h) (Homo sapiens, UniProt P43119); details: radioligand [^3H]-iloprost
# Source text: as §1
# NK3 (h) = NK3 (h) (Homo sapiens, UniProt P29371); details: radioligand [^3H]-SR 142801
# Source text: as §1
# Dopamine transporter (h) = Dopamine transporter (h) (Homo sapiens, UniProt Q01959); details: radioligand [^3H]-BTCP
# Source text: as §1
# MT1 (ML1A) (h) = MT1 (ML1A) (h) (Homo sapiens, UniProt P48039); details: radioligand [^125I]-2-iodomelatonin
# Source text: as §1
# 5-HT1A (h) = 5-HT1A (h) (Homo sapiens, UniProt P08908); details: radioligand [^3H]-8-OH-DPAT
# Source text: as §1
# PPARγ (h) = PPARγ (h) (Homo sapiens, UniProt P37231); details: radioligand [^3H]-rosiglitazone
# PPARγ (h), sequence (P37231 whole entry): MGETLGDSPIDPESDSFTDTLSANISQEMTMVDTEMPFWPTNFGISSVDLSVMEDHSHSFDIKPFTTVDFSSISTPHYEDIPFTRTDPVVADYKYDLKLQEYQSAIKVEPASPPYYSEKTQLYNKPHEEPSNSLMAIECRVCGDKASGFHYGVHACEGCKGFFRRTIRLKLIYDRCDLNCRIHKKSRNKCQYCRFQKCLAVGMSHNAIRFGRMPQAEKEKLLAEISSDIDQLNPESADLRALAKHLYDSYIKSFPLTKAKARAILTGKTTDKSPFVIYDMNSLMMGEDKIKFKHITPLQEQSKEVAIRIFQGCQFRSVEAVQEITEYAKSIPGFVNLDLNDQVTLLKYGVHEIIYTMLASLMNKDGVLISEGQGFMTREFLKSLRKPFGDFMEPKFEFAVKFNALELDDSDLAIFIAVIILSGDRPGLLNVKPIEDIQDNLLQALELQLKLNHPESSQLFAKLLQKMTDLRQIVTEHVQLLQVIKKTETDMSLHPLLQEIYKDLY
# Source text: as §1
# δ(DOP) (h) = δ(DOP) (h) (Homo sapiens, UniProt P41143); details: radioligand [^3H]-DADLE
# Source text: as §1
# M3 (h) = M3 (h) (Homo sapiens, UniProt P20309); details: radioligand [^3H]-4-DAMP
# Source text: as §1
# KV channel = details: radioligand [^125I]-α-dendrotoxin
# Source text: as §1
# 5-HT5A (h) = 5-HT5A (h) (Homo sapiens, UniProt P47898); details: radioligand [^3H]-LSD
# 5-HT5A (h), sequence (P47898 whole entry): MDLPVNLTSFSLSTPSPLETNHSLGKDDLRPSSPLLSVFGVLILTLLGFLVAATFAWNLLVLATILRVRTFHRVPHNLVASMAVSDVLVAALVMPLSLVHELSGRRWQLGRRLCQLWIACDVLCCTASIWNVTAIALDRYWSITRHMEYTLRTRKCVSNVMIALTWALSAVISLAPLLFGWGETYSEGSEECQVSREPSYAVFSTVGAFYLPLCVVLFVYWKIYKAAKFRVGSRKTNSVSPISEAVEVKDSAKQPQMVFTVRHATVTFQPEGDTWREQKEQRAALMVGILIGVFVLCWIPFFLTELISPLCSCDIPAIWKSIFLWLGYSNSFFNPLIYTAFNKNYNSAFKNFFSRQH
# Source text: as §1
# BZD (central) = details: radioligand [^3H]-flunitrazepam
# Source text: as §1
# 5-HT transporter (h) = 5-HT transporter (h) (Homo sapiens, UniProt P31645); details: radioligand [^3H]-imipramine
# Source text: as §1
# CGRP (h) = CGRP (h) (Homo sapiens, UniProt O60894+Q16602); details: radioligand [^125I]-hCGRPα
# Source text: as §1
# Cl- channel (GABA-gated) = details: radioligand [^35S]-TBPS
# Source text: as §1
# H2 (h) = H2 (h) (Homo sapiens, UniProt P25021); details: radioligand [^125I]-APT
# Source text: as §1
# VPAC1 (VIP1) (h) = VPAC1 (VIP1) (h) (Homo sapiens, UniProt P32241); details: radioligand [^125I]-VIP
# Source text: as §1
# 5-HT3 (h) = 5-HT3 (h) (Homo sapiens, UniProt P46098); details: radioligand [^3H]-BRL 43694
# 5-HT3 (h), sequence (P46098 24-478): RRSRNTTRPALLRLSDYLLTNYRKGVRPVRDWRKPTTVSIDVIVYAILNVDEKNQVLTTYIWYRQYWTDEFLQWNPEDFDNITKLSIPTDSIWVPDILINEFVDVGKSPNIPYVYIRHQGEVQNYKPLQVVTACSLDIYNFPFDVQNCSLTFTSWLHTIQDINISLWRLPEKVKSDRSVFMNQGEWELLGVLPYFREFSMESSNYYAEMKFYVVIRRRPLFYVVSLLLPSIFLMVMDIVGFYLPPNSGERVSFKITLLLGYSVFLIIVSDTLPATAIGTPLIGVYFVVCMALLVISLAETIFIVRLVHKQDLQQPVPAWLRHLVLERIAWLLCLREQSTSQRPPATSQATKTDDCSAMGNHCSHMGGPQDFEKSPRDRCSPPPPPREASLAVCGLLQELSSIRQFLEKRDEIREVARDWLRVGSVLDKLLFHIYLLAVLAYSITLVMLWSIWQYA
# Source text: as §1
# SKCa channel = details: radioligand [^125I]-apamin
# Source text: as §1
# D2S (h), sequence (P14416 1-414 isoform P14416-2): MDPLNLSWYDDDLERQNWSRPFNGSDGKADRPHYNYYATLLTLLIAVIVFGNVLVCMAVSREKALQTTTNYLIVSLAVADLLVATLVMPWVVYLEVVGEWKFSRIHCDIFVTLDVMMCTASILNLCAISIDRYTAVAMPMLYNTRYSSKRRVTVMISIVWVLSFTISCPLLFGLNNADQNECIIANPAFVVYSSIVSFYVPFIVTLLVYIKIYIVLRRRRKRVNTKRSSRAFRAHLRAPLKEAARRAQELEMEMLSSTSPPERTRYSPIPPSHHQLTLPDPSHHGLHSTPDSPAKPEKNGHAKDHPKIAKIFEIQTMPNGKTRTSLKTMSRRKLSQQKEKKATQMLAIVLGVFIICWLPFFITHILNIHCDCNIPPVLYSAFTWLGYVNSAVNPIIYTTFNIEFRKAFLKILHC
structure (smiles),measurement,setting,value
"Cn1nnnc1Cn1nnc2c(N3CC[C@H](O)C3)nc(C(C)(C)C)nc21 [RG7774, (S)-1-(5-tert-butyl-3-[(1-methyl-1H-tetrazol-5-yl)methyl]-3H-[1,2,3]triazolo[4,5-d]pyrimidin-7-yl)pyrrolidin-3-ol]",% inhibition of control SB (n = 2),D2S (h),12.0%
same,% inhibition of control SB (n = 2),BB (non-selective),–9.5%
same,% inhibition of control SB (n = 2),A2A (h),12.4%
same,% inhibition of control SB (n = 2),D3 (h),–0.3%
same,% inhibition of control SB (n = 2),Alpha 2 (non-selective),–20.9%
same,% inhibition of control SB (n = 2),P2X,25.9%
same,% inhibition of control SB (n = 2),[1],5.4%
same,% inhibition of control SB (n = 2),H1 (h),–8.8%
same,% inhibition of control SB (n = 2),Beta 1 (h),–3.1%
same,% inhibition of control SB (n = 2),5-HT2C (h),2.7%
same,% inhibition of control SB (n = 2),ETA (h),–10.4%
same,% inhibition of control SB (n = 2),PDGF,–5.6%
same,% inhibition of control SB (n = 2),5-HT6 (h),3.5%
same,% inhibition of control SB (n = 2),Y1 (h),–5.5%
same,% inhibition of control SB (n = 2),D4.4 (h),3.7%
same,% inhibition of control SB (n = 2),CCR1,5.6%
same,% inhibition of control SB (n = 2),A3 (h),–0.6%
same,% inhibition of control SB (n = 2),[2],3.0%
same,% inhibition of control SB (n = 2),ETB (h),–8.1%
same,% inhibition of control SB (n = 2),κ(KOP),–12.7%
same,% inhibition of control SB (n = 2),IP (PGI2) (h),–3.8%
same,% inhibition of control SB (n = 2),NK3 (h),8.2%
same,% inhibition of control SB (n = 2),Dopamine transporter (h),4.9%
same,% inhibition of control SB (n = 2),MT1 (ML1A) (h),7.9%
same,% inhibition of control SB (n = 2),5-HT1A (h),3.6%
same,% inhibition of control SB (n = 2),PPARγ (h),1.7%
same,% inhibition of control SB (n = 2),δ(DOP) (h),4.7%
same,% inhibition of control SB (n = 2),M3 (h),–6.7%
same,% inhibition of control SB (n = 2),KV channel,–5.7%
same,% inhibition of control SB (n = 2),5-HT5A (h),2.2%
same,% inhibition of control SB (n = 2),BZD (central),–0.7%
same,% inhibition of control SB (n = 2),5-HT transporter (h),22.2%
same,% inhibition of control SB (n = 2),CGRP (h),1.7%
same,% inhibition of control SB (n = 2),Cl- channel (GABA-gated),17.2%
same,% inhibition of control SB (n = 2),H2 (h),–2.3%
same,% inhibition of control SB (n = 2),VPAC1 (VIP1) (h),7.8%
same,% inhibition of control SB (n = 2),5-HT3 (h),1.4%
same,% inhibition of control SB (n = 2),SKCa channel,8.6%
